Source: patent publication US20250296938A1, “Compounds that Interact with the Ras Superfamily for the Treatment of Cancers, Inflammatory Diseases, Rasopathies, and Fibrotic Disease” (SHY Therapeutics, LLC, priority 2018, published 2025)

What was measured:
TNF-α = assay: Mouse TNF alpha quantification assay, LPS-stimulated RAW 264.7 macrophages; type: cell-based; details: RAW264.7, 10 μM, LPS (100 ng/ml) added concurrently, 5 hours, RAW 264.7, read-out: TNFα % Inhibition
Method: (§1) Cell lines: Abelson murine leukemia virus transformed macrophage cell line RAW 264.7 was purchased from ATCC and grown in complete DMEM-High Glucose medium supplemented with penicillin (100 U/mL), streptomycin (100 μg/mL), and 10% heat-inactivated FBS at 37° C. in a humidified incubator with 5% CO2.
(§2) Method: Cells were plated at 25000-40000 cells/well density in a 96-well plate. After a 3-hour incubation, macrophages were starved with DMEM plus 0.5% FBS overnight. The next day the small molecules to be tested were added to the cells in the final concentration of 30 μM (with 0.3% DMSO) 3 hours prior to LPS stimulation (100 ng/ml). After LPS stimulation cells were incubated at 37° C. for 16 h. Alternatively, compounds were also tested at 10 μM and LPS (100 ng/ml) was added concurrently and incubated 5 hours at 37° C. At the end of the incubation periods, culture medium was collected and production of LPS-induced TNF-α and IL-6 cytokine was measured using ELISA detection kits.
(§3) Sandwich ELISA: The ELISA Immunoassays Quantikine Mouse TNF-alpha (catalog number MTA00B) and IL6 (catalog number M6000B) were purchased from R&D Systems Inc., Minneapolis, MN. These 4.5 hours solid phase ELISAs were used to measure mouse TNF-α or IL-6 levels in macrophages culture supernatants. Assays were executed according to the manufacturer specifications.

IL-6 = assay: Mouse IL6 quantification assay, LPS-stimulated RAW 264.7 macrophages; type: cell-based; details: RAW264.7, 10 μM, LPS (100 ng/ml) added concurrently, 5 hours, RAW 264.7
Method: as §1, §2, §3

SMILES | inhibition at 10 µM (TNF-α) [%] | inhibition at 10 µM (IL-6) [%]
CO[C@H]1C[C@@H](Nc2nc(-c3nccn3C)nc3sccc23)C1 [drawing 768] | 1 to 25 | 26 to 50
Cn1ccc(-c2sc3nc(-c4nccn4C)nc(O)c3c2-c2ccccc2)n1 [drawing 769] | 1 to 25 | 51 to 75
CO[C@H]1C[C@@H](Nc2nc(-c3nccn3C)nc3sc(-c4ccn(C)n4)c(-c4ccccc4)c23)C1 [drawing 770] | 76 to 100 | 76 to 100
CO[C@H]1C[C@H](Nc2nc(-c3nccn3C)nc3sc(-c4ccn(C)n4)c(-c4ccccc4)c23)C1 [drawing 771] | 76 to 100 | 76 to 100
CN(C)CCOCCNc1nc(-c2nccn2C)nc2sc(-c3ccn(C)n3)c(-c3ccccc3)c12 [drawing 772] | 26 to 50 | 76 to 100
Cn1ccc(-c2sc3nc(-c4nccn4C)nc(N[C@H]4C[C@@H](O)C4)c3c2-c2ccccc2)n1 [drawing 773] | 0 | 26 to 50
CO[C@H]1C[C@@H](Nc2nc(-c3ncc[nH]3)nc3sc(-c4ccn(C)n4)c(-c4ccccc4)c23)C1 [drawing 775] | 1 to 25 | 76 to 100
CO[C@H]1CC[C@@H](Nc2nc(-c3ncc[nH]3)nc3sc(-c4ccn(C)n4)c(-c4ccccc4)c23)C1 [drawing 776] | 26 to 50 | 76 to 100
CO[C@H]1CC[C@@H](Nc2nc(-c3nccn3C)nc3sc(-c4ccn(C(C)C)n4)c(-c4ccccc4)c23)C1 [drawing 777] | 76 to 100 | 76 to 100
COc1nc(-c2ccccn2)nc2c(-c3ccccn3)csc12 [drawing 778] | 1 to 25 | 51 to 75
CO[C@H]1C[C@@H](Nc2nc(-c3nccn3C)nc3sc(-c4ccn(C)n4)c(C)c23)C1 [drawing 779] | 1 to 25 | 76 to 100
CO[C@H]1CC[C@@H](Nc2nc(-c3nccn3C)nc3sc(-c4ccn(C)n4)c(C)c23)C1 [drawing 780] | 1 to 25 | 76 to 100
Cc1c(-c2ccn(C)n2)sc2nc(-c3nccn3C)nc(NCCCS(C)(=O)=O)c12 [drawing 781] | 1 to 25 | 1 to 25
Cc1c(-c2ccn(C)n2)sc2nc(-c3nccn3C)nc(NCCCC(=O)N(C)C)c12 [drawing 782] | 1 to 25 | 1 to 25
Cc1c(-c2ccn(C)n2)sc2nc(-c3nccn3C)nc(NCCOC(=O)N(C)C)c12 [drawing 783] | 26 to 50 | 51 to 75
CO[C@H]1CC[C@@H](Nc2nc(-c3nccn3C)nc3sc(-c4ccn(C(C)C)n4)c(C)c23)C1 [drawing 784] | 26 to 50 | 51 to 75
CO[C@H]1C[C@@H](Nc2nc(-c3nccn3C)nc3sc(C(=O)NC(C)C)c(-c4ccccc4)c23)C1 [drawing 785] | 0 | 1 to 25
COCCNC(=O)c1sc2nc(-c3nccn3C)nc(N[C@H]3C[C@@H](OC)C3)c2c1-c1ccccc1 [drawing 786] | 0 | 26 to 50
CO[C@H]1C[C@@H](Nc2nc(-c3nccn3C)nc3sc(C(=O)N4CCOCC4)c(-c4ccccc4)c23)C1 [drawing 787] | 1 to 25 | 1 to 25
COC1CCN(C(=O)c2sc3nc(-c4nccn4C)nc(N[C@H]4C[C@@H](OC)C4)c3c2-c2ccccc2)C1 (stereo partly drawn) [drawing 788] | 0 | 0
CO[C@H]1CC[C@@H](Nc2nc(-c3nccn3C)nc3sc(C(=O)NC(C)C)c(-c4ccccc4)c23)C1 [drawing 789] | 1 to 25 | 51 to 75
COCCNC(=O)c1sc2nc(-c3nccn3C)nc(N[C@@H]3CC[C@H](OC)C3)c2c1-c1ccccc1 [drawing 790] | 1 to 25 | 51 to 75
CO[C@H]1CC[C@@H](Nc2nc(-c3nccn3C)nc3sc(C(=O)N4CCCC4)c(-c4ccccc4)c23)C1 [drawing 791] | 1 to 25 | 1 to 25
CO[C@H]1CC[C@@H](Nc2nc(-c3nccn3C)nc3sc(C(=O)N4CCOCC4)c(-c4ccccc4)c23)C1 [drawing 792] | 1 to 25 | 26 to 50
